For orientation: EC50 means the concentration that produces a half-maximal response. The AC50 is the concentration at which the activity in the assay is half-maximal. What is called Ki is the dissociation constant of the complex between target and ligand, obtained from inhibition or displacement.

Consider five molecules from ChEMBL document CHEMBL1201862, “PubChem BioAssay data set” (2004).

The structures appear in SMILES notation. Active and inactive are the calls of the source. Unless noted, no cut-off for these calls is given here.

Assay [1] has as its target Sphingosine 1-phosphate receptor 1 (Homo sapiens, UniProt P21453). Kind of assay: Late-stage fluorescence-based dose-response cell-based counterscreen assay to identify agonists of the Sphingosine 1-Phosphate Receptor 4 (S1P4): Sphingosine 1-Phosphate Receptor 1 (S1P1) agonist assay Set 2. The class given is functional. In general terms: The purpose of a counterscreen is to sort out artefacts and off-target activity.

The target of assay [2] is Sphingosine 1-phosphate receptor 5 (Homo sapiens, UniProt Q9H228). Description: activation of human S1P5 receptor – cell-based, fluorescence, set 2, counter-screen for S1P4 agonist project, late-stage follow-up (AID 504867). Type of assay: functional.
For assay [3], the target named is Sphingosine 1-phosphate receptor 3 (Homo sapiens, UniProt Q99500). Description: Late-stage fluorescence-based dose-response cell-based counterscreen assay to identify agonists of the Sphingosine 1-Phosphate Receptor 4 (S1P4): Sphingosine 1-Phosphate Receptor 3 (S1P3) agonist assay Set 2. The class given is functional.
Assay [4] has as its target Sphingosine 1-phosphate receptor 2 (Homo sapiens, UniProt O95136). Kind of assay: activation of human S1P2 receptor – cell-based, fluorescence, set 2, counter-screen for S1P4 agonist project, late-stage follow-up (AID 504873). The class given is functional.
A short description of assay [5]: Luminescence Cell-Based Dose Retest to Confirm Inhibitors of Cancer Stem Cells. [Related pubchem assays (depositor defined):AID2717, AID2721]. As to conditions: Homo sapiens. The class given is functional.
The subject of the next assay is CHO. Description: CHO cell viability loss, potency – luminescence, cytotoxicity control for TLR9-MyD88 binding inhibitor project, dose response (AID 588339).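 Note: CHO cells stably coexpressing TLR9 and MyD88 fusions from primary screen; compound exposure lasted 48 hours before viability readout.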 To be noted: Cricetulus griseus. Type of assay: functional, cell-based, hamster.
A further assay has as its target Beta Lactamase (Pseudomonas aeruginosa, UniProt Q932Y6). Description: BLA reporter interference, concentration series – BLA reporter cells, FRET fluorescence, artefact control for TLR9-MyD88 binding inhibitor project, dose response (AID 588341).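 Note: cell based assay in CHO-K1 cells stably expressing beta-lactamase.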 The class given is cell-based.
The target in assay [6] is DNA dC->dU-editing enzyme APOBEC-3G (Homo sapiens, UniProt Q9HC16). Kind of assay: inhibition of APOBEC3G ssDNA deamination – biochemical, fluorescence, single-stranded DNA substrate, SAR follow-up (AID 602136). The class given is functional. As to conditions: read-out: IC50_Mean.
Assay [7] has as its target DNA dC->dU-editing enzyme APOBEC-3A (Homo sapiens, UniProt P31941). Description: SAR analysis of small molecule inhibitors of APOBEC3A DNA Deaminase via a fluorescence-based single-stranded DNA deaminase assay. Type of assay: functional. As to conditions: read-out: IC50_Mean.
In assay [8] the target is Cell division cycle 7-related protein kinase (Homo sapiens, UniProt O00311). The class given is functional.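 Note: value obtained from a kinome-wide kinase panel.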
Another assay deals with Wee1-like protein kinase (Homo sapiens, UniProt P30291). Description: Navigating the Kinome. Panel member name: WEE1. The class given is functional.
Assay [9] deals with T1, Beta-adrenergic receptor kinase 1 (Homo sapiens, UniProt P25098). Kind of assay: aptamer displacement from bead-bound GRK2 – biochemical, cherry pick 1, bead flow cytometry, dose response (AID 504500). On the technique in general: A flow cytometer gives signals particle by particle.
In assay [10] the target is T1, Beta-adrenergic receptor kinase 1. Kind of assay: blockers of aptamer binding to GRK2 – biochemical, flow cytometry beads, FAM-aptamer, powder set 1, dose response (AID 588720).
The target of assay [11] is T2, Carboxy-terminal domain RNA polymerase II polypeptide A small phosphatase 1 (Homo sapiens, UniProt Q9GZU7).
T2 sequence (Q9GZU7 whole entry): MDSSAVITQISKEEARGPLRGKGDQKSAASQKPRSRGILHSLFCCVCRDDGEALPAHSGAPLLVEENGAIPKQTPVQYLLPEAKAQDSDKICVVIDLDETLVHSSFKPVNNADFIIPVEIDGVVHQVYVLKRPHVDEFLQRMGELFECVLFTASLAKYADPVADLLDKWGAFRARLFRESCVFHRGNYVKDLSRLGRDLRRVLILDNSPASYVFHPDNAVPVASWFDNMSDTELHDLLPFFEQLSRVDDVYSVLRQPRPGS
Kind of assay: CTDSP1 inhibitors, concentration-response, biochemical, absorbance readout, ultra-high-throughput screen actives (AID 540297). The class given is functional.

Another assay addresses T3, Caspase-6 (Homo sapiens, UniProt P55212).
T3 sequence (P55212 whole entry): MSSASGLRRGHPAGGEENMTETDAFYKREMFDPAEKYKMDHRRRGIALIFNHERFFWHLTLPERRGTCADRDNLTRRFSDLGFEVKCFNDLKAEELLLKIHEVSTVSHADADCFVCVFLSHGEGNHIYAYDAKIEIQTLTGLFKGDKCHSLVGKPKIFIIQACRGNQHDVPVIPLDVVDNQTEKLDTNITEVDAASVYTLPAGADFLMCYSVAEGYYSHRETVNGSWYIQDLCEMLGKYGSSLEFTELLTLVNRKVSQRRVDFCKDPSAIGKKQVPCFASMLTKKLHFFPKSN
Description: inhibition of CASP6 peptide cleavage – biochemical, VEID-R110 fluorescence, cherry-pick, dose response (AID 720632).

The target in assay [12] is T4, Histone-lysine N-methyltransferase NSD2 (Homo sapiens, UniProt O96028).
T4 sequence (O96028 whole entry): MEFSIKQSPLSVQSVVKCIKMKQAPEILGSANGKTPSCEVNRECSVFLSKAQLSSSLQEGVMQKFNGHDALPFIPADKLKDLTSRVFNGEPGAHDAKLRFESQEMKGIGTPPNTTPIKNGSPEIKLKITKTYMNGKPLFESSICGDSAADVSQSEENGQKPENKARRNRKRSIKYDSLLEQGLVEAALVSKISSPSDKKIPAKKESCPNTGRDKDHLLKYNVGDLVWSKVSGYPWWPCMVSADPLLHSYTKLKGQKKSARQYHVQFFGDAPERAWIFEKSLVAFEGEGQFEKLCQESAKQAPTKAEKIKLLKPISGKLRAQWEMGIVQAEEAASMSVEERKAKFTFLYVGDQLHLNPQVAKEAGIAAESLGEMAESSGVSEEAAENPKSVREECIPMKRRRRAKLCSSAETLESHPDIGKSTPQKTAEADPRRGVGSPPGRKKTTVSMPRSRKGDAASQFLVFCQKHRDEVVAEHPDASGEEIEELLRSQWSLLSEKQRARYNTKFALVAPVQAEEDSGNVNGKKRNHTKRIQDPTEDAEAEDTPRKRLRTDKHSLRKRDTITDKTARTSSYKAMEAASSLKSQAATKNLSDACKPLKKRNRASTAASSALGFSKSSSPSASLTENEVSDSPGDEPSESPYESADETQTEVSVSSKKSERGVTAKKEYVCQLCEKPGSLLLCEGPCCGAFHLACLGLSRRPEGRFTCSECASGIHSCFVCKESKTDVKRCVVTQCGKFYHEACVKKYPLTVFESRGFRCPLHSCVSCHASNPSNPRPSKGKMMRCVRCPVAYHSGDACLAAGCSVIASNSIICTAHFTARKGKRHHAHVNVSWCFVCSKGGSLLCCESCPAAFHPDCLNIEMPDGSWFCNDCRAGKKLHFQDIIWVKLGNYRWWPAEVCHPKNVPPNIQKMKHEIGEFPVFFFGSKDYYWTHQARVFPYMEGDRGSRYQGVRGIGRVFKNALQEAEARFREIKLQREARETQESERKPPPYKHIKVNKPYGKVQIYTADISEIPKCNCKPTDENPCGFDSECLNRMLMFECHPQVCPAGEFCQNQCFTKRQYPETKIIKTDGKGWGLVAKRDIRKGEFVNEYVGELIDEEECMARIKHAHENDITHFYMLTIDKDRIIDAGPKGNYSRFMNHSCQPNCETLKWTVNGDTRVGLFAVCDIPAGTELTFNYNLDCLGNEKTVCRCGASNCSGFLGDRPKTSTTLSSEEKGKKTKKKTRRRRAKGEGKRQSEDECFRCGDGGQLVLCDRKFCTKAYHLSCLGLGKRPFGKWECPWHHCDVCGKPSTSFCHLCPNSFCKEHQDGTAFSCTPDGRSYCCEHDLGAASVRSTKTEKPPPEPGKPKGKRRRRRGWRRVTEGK
The class given is biochemical.

T1 sequence (P25098 whole entry): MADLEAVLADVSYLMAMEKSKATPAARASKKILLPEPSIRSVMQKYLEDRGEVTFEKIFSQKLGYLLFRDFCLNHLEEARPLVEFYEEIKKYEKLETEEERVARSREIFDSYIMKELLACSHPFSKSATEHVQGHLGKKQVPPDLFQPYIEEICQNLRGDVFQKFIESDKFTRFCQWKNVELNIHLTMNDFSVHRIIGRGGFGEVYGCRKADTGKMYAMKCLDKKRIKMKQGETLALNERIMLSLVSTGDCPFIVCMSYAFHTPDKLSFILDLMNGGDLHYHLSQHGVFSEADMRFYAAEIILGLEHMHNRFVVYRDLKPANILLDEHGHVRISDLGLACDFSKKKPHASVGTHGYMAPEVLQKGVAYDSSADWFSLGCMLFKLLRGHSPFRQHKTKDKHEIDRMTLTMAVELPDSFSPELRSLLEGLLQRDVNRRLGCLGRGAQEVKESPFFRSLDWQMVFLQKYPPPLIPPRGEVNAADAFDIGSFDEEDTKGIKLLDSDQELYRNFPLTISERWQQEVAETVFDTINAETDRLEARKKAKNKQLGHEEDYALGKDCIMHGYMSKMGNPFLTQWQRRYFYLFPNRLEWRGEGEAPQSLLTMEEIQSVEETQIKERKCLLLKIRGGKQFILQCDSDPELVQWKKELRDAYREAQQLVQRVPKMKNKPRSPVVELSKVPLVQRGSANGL
Sphingosine 1-phosphate receptor 5, sequence (Q9H228 whole entry): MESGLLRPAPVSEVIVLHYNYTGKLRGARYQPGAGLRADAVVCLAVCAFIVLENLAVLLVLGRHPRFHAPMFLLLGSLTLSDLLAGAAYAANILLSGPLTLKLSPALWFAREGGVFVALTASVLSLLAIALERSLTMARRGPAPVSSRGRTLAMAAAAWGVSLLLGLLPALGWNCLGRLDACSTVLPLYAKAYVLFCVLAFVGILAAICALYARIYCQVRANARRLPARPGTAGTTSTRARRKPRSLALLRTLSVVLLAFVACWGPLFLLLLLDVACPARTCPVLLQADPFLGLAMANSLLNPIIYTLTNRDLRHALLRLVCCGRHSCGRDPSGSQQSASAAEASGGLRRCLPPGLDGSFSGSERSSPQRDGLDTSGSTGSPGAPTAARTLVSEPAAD
Sphingosine 1-phosphate receptor 3, sequence (Q99500 whole entry): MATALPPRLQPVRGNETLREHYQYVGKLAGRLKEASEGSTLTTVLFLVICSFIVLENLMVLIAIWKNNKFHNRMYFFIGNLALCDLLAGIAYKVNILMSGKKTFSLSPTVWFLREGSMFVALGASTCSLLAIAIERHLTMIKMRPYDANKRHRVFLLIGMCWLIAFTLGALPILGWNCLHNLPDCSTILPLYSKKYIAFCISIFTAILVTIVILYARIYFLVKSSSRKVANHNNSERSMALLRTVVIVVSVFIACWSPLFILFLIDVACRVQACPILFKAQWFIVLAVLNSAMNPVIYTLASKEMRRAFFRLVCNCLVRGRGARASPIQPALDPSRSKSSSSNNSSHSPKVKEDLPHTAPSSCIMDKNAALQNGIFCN
Sphingosine 1-phosphate receptor 1, sequence (P21453 whole entry): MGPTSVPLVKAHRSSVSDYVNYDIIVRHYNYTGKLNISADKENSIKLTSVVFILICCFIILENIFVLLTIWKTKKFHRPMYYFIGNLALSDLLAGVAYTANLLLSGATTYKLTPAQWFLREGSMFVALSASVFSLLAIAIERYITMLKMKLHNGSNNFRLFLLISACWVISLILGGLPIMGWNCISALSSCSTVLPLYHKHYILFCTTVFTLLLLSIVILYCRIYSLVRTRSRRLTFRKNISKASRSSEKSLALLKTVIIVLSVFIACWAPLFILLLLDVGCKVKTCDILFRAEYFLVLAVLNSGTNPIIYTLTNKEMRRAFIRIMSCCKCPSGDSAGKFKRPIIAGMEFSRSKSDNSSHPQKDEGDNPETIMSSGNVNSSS
Cell division cycle 7-related protein kinase, sequence (O00311 whole entry): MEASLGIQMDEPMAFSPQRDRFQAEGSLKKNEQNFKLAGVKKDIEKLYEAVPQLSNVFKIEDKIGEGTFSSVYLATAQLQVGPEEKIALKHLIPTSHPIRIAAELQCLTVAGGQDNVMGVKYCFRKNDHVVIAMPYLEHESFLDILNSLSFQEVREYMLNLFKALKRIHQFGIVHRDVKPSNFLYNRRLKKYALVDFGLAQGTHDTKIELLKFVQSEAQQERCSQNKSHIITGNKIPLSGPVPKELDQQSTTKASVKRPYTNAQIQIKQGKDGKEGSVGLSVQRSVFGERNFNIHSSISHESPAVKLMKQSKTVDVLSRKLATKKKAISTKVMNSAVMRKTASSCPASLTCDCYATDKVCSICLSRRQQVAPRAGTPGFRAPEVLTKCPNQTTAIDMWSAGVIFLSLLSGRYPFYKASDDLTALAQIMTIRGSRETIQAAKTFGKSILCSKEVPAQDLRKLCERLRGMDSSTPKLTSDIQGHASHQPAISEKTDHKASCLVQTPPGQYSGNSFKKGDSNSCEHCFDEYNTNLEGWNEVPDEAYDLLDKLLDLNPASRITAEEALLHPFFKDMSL
Wee1-like protein kinase, sequence (P30291 whole entry): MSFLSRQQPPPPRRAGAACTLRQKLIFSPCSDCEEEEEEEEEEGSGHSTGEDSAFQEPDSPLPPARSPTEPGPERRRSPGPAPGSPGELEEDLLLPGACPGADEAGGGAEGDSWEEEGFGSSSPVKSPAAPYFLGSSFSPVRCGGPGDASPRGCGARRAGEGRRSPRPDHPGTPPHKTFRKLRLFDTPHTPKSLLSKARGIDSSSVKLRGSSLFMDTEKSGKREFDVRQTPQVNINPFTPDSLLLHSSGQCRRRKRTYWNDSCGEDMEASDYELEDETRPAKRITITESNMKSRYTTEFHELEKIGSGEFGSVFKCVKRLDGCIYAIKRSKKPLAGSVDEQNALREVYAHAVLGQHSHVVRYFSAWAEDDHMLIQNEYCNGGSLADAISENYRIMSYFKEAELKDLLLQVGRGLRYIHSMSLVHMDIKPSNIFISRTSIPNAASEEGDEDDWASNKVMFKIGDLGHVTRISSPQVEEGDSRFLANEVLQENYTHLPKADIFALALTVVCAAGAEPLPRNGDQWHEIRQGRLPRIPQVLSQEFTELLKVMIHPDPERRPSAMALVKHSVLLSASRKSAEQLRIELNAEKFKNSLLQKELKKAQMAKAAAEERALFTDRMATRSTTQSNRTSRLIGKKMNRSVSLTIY
DNA dC->dU-editing enzyme APOBEC-3A, sequence (P31941 whole entry): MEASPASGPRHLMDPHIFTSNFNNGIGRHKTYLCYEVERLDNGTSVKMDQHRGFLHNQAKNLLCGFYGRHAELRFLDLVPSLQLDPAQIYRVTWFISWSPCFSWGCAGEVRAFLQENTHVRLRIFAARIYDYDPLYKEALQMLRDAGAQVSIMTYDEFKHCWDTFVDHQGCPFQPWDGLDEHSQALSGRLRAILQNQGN
Sphingosine 1-phosphate receptor 2, sequence (O95136 whole entry): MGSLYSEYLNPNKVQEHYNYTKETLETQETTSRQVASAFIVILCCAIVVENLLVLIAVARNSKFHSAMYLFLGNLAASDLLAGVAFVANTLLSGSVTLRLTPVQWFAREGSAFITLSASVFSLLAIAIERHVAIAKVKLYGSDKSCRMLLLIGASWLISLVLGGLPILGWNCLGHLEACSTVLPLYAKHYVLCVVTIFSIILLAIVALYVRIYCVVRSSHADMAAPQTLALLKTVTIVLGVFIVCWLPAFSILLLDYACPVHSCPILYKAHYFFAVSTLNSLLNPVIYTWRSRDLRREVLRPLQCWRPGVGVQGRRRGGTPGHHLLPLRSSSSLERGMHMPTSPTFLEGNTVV
Beta Lactamase, sequence (Q932Y6 whole entry): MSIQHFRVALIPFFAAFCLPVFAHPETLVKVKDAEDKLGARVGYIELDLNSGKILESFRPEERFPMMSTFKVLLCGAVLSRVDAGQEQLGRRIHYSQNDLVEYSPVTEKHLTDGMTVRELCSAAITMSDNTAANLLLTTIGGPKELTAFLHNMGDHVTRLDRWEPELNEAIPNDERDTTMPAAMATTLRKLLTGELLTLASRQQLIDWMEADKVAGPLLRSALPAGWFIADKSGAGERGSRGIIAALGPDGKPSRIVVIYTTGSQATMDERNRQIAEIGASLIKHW
DNA dC->dU-editing enzyme APOBEC-3G, sequence (Q9HC16 whole entry): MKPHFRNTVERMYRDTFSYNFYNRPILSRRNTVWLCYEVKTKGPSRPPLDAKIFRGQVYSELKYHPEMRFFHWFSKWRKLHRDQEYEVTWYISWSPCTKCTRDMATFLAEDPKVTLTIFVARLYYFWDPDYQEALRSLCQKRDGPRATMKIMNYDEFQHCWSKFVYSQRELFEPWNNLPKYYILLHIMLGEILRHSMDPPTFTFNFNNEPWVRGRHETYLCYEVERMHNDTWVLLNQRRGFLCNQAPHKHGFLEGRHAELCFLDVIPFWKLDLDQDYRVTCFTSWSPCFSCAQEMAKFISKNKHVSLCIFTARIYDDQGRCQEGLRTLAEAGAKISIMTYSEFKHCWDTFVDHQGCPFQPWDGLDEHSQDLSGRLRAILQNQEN

Regarding `CC/N=C1\S/C(=C\c2cc(C)n(-c3ccccc3F)c2C)C(=O)N1CC`, the EC50 in assay [1], in assay [2], in assay [3] and in assay [4] was > 25 µM (inactive) in each case.
For `c1cc(SC2CCCCC2)cc(-c2nc3cnccn3c2NC2CCCCC2)c1`, the AC50 in assay [5] is 1.58 µM (active). In addition, the IC50 in the assay on CHO is 23.4 µM (inactive); at Beta Lactamase, 4.83 µM (active).
Regarding `CCOc1nc(Nc2ccccc2)nc(Nc2ccc(-c3nc4ccccc4o3)cc2)n1`, the IC50 in [6] and in assay [7] was > 99 µM (inactive) each time.
Consider `Fc1ccc(Nc2ncnc(Nc3ccc4cn[nH]c4c3)n2)cc1`, for which the Ki in [8] is 0.0501 µM (active); on Wee1-like protein kinase it was > 3.16 µM (inactive).
`O=C(O)Cc1ccc(-n2cccc2)cc1`: the EC50 in [9] is 36.2 µM (inactive); in assay [10] it was 3.21 µM (active). Moreover, in assay [11], the IC50 is 4.01 µM (active). Moreover, the AC50 on Caspase-6 was 2.7 µM (active); in [12], 11.9 µM (active).
